Tests used:
Test in all cases: Plant tolerance (greenhouse, post-emergence)
Type in all cases: in vivo
Details in all cases: visual scoring four to five weeks after application
rice = system: rice
Procedure: (§1) Seeds of mono- and dicotyledonous harmful plants are placed in sandy loam in cardboard pots, covered with soil and grown in the greenhouse under good growth conditions. 2 to 3 weeks after sowing, the test plants are treated in the three-leaf stage. The compounds according to the invention, which are formulated as wettable powders or as emulsion concentrates, are sprayed at various dosages onto the surface of the green plant parts at an application rate of 600 to 800 l of water per ha (converted). After the test plants have been left to stand in the greenhouse for 3 to 4 weeks under optimal growth conditions, the effect of the compounds is scored visually. The chosen compounds according to the invention have an outstanding activity against a broad spectrum of economically important monocotyledonous and dicotyledonous harmful plants.
(§2) In further greenhouse experiments, seeds of crop plants and of monocotyledonous and dicotyledonous harmful plants are placed in sandy loam, covered with soil and placed in the greenhouse until the plants have developed two to three true leaves. Then, they are treated with the compounds of the formula (I) according to the invention as described above under item 1. […] Thus, for example, the compounds of examples Nos. 4.16 and 4.98 cause, at a dosage of 320 g/ha, no damage in wheat, rice and maize. The compounds of examples Nos. 1.4, 1.8, 4.16, 4.19 and 4.98 caused, at 80 g/ha, no damage in wheat, rice and maize.

wheat = system: wheat
Procedure: as §1, §2

maize = system: maize
Procedure: as §1, §2

CCC(=O)COc1c(S(C)(=O)=O)ccc(C(=O)C2=C(O)CCCC2=O)c1Cl [Example 1.4]
no damage: damage in rice (rice; 80 g/ha) | damage in wheat (wheat; 80 g/ha) | damage in maize (maize; 80 g/ha)

CC1(C)CC(=O)C(C(=O)c2ccc(S(C)(=O)=O)c(OCC(=O)C(C)(C)C)c2Cl)=C(O)C1 [Example 1.8]
no damage: damage in rice (rice; 80 g/ha) | damage in wheat (wheat; 80 g/ha) | damage in maize (maize; 80 g/ha)

CCON=C(C)COc1c(S(C)(=O)=O)ccc(C(=O)C2=C(O)CCCC2=O)c1Cl [Example 4.16]
no damage: damage in rice (rice; 80 g/ha) | damage in rice (rice; 320 g/ha) | damage in wheat (wheat; 80 g/ha) | damage in wheat (wheat; 320 g/ha) | damage in maize (maize; 80 g/ha) | damage in maize (maize; 320 g/ha)

C=CCON=C(C)COc1c(S(C)(=O)=O)ccc(C(=O)C2=C(O)CCCC2=O)c1Cl [Example 4.19]
no damage: damage in rice (rice; 80 g/ha) | damage in wheat (wheat; 80 g/ha) | damage in maize (maize; 80 g/ha)

CCON=C(CC)COc1c(S(C)(=O)=O)ccc(C(=O)C2=C(O)CCCC2=O)c1Cl [Example 4.98]
no damage: damage in rice (rice; 80 g/ha) | damage in rice (rice; 320 g/ha) | damage in wheat (wheat; 80 g/ha) | damage in wheat (wheat; 320 g/ha) | damage in maize (maize; 80 g/ha) | damage in maize (maize; 320 g/ha)
